In brackets after ≈: the same amount, converted by molar mass.
How the values were obtained:
[1] = system: A. baumannii strain CI 79; test: Bacterial adherence to mouse intestinal sections; format: cell-based, Acinetobacter baumannii
Description: Intestinal sections were cut down one side to expose the inner lumen of the intestine and individually placed in suspensions of A. baumannii strain CI 79 (10^7 CFU/mL). The sections were incubated in this mixture for 30 minutes, washed twice in 250 volumes of sterile PBS and soaked in 500 volumes of PBS (volume of section ˜50-100 μL) for five minutes. The remaining bound bacteria were enumerated through homogenization of each section into single cell suspensions in 10 mL sterile PBS followed by dilution plating.

Acinetobacter baumannii [2] = test: Repeat MIC experiment performed to CLSI standards; format: cell-based
[3] = system: multi-drug resistant (MDR) Acinetobacter baumannii clinical isolates; test: Minimum inhibitory concentration (MIC) determination; format: cell-based
Description: PX-12 concentrations used in these experiments approximated the concentration reported “well tolerated” by mice (˜500 μg/mouse; 500 μg/mL for this experiment). […] Furthermore, this concentration was also bactericidal leading us to believe it may potentially be useful as a new antimicrobial compound for treating MDR Acinetobacter baumannii. (Bacterial concentrations used in presented studies ˜100× higher than recommended by CLSI standards)

Acinetobacter baumannii [4] = test: SIgA breakdown / secretory component liberation by Acinetobacter baumannii (Western blot); format: cell-based; settings: for SC liberation / SIgA reduction: 2 hours after incubation
Description: Acinetobacter baumannii was incubated with 50 μg/mL SIgA to examine breakdown of the immunoglobulin. Breakdown of SIgA by A. baumannii was observed by liberation of secretory component from dimeric IgA. Goat anti-human secretory component (free and bound) antibody was used to monitor this occurrence though Western blot. A mixture of A. baumannii strain CI 79 was prepared in three concentrations—10^7, 10^6, and 10^5 CFU/mL—to determine whether SIgA breakdown was dose dependent with respect to bacterial concentration FIG. 1A. […] Next, two competitive inhibitors of reductase enzymes targeting the thioredoxin fold (-C-X-X-C-) motif typically found in thiol-reductase enzymes (thioredoxin, glutathione, thioredoxin reductase, etc) were identified. The first, dithionitrobenzoic acid (Ellman's reagent) is often used as a colorimetric substrate to monitor thioredoxin activity as it produces a bright yellow color upon cleavage of the disulfide bond within the molecule. The second is PX-12. […] Although not shown here, inhibition was still evident at 24 hours with Ellman's reagent, PX-12 inhibition seemed to be overcome by the bacteria after about 12 hours. […] (Error bars represent±SEM in all graphs; statistical differences determined by ANOVA with Dunnett correction; *significance p<0.01; **p<0.001).

[5] = mouse, in vivo; cited from earlier work
[6] = humans; 300 mg/m^2 dose level; cited from earlier work
[7] = cation adjusted Mueller Hinton broth, ~5×10^5 CFU/mL, 64 to 0.5 μg/mL tested

Row | SMILES | bacterial adherence to intestinal sections ([1]; 18 μg/mL, sections from WT C57BL/6 mice) | reduction of bacterial attachment ([1]; WT intestinal sections as 100% control, A. baumannii CI 79 10^7 CFU/mL, 30 minutes) [%] | MBC (Acinetobacter baumannii [2]; [7]) | MIC (Acinetobacter baumannii [2]; [7]) | type of antimicrobial activity (Acinetobacter baumannii [2]; concluded from MIC and MBC) | bactericidal effect at the MIC ([3]; 31.25 μg/mL) | bacterial pellet size ([3]; 500 μg/mL) | MIC ([3]; Acinetobacter baumannii, MDR clinical isolates, with one exception, bacterial concentrations ~100× higher than CLSI) [µg/mL] | SC liberation (Acinetobacter baumannii [4]; inhibitor 15 μg/mL) | SIgA reduction (Acinetobacter baumannii [4]; inhibitor 15 μg/mL) | time after which inhibition is overcome by the bacteria (Acinetobacter baumannii [4]; not shown) | SIgA breakdown by Acinetobacter baumannii (Acinetobacter baumannii [4]; up to 2 hours following treatment with 18 μg/mL) | concentration reported well tolerated [5] [μg/mouse] | dose-limiting toxicities [6] | SC liberation (Acinetobacter baumannii [4]; inhibitor 1 mM) | SIgA reduction (Acinetobacter baumannii [4]; inhibitor 1 mM) | inhibition of SIgA reduction at 24 hours (Acinetobacter baumannii [4]; 24 hours, not shown) | SIgA breakdown by Acinetobacter baumannii (Acinetobacter baumannii [4]; after addition of the substrate, concentration not given)
1 | CCC(C)SSc1ncc[nH]1 (stereo not drawn) [PX-12, 1-methylpropyl 2-imidazolyl disulfide] | significantly inhibits | 40 | low | low | bactericidal activity | bactericidal | visible decrease | 31.2 (≈ 166 µM) | completely ablated | completely ablated | about 12 hours | significantly reduced | ~500 | Grade 3 hypoxia and Grade 2 reversible bilateral pneumonitis |  |  |  | 
2 | O=C(O)c1cc(SSc2ccc([N+](=O)[O-])c(C(=O)O)c2)ccc1[N+](=O)[O-] [dithionitrobenzoic acid] |  |  |  |  |  |  |  |  |  |  |  |  |  |  | completely ablated | completely ablated | still evident | significantly reduced

From US10398682B2, “Methods and compositions to prevent or treat bacterial infections” (THE BOARD OF REGENTS OF THE UNIVERSITY OF TEXAS SYSTEM, priority 2013, dated 2019)
